Results from PubChem BioAssay (NCI).
“And” between values parts separate entries of the source, which are not always exact repeats. Identical values can stand only once.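 48-hour exposure; five concentrations; linearly interpolated endpoints. GI50: concentration for 50% inhibition of growth. TGI is the concentration that stops growth completely.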

Legend:
Assay in all cases: DTP human tumour cell line panel, 48 h
UACC-257 melanoma = tested on: UACC-257 melanoma
U251 CNS = tested on: U251 CNS
MALME-3M melanoma = tested on: MALME-3M melanoma
NCI-H226 lung = tested on: NCI-H226 lung
T-47D breast = tested on: T-47D breast
M14 melanoma = tested on: M14 melanoma
OVCAR-4 ovarian = tested on: OVCAR-4 ovarian
SF-268 CNS = tested on: SF-268 CNS
HS 578T breast = tested on: HS 578T breast
SNB-75 CNS = tested on: SNB-75 CNS

SMILES | GI50 (UACC-257 melanoma) | TGI (UACC-257 melanoma) | GI50 (U251 CNS) | TGI (U251 CNS) | GI50 (MALME-3M melanoma) | TGI (MALME-3M melanoma) | GI50 (NCI-H226 lung) | TGI (NCI-H226 lung) | GI50 (T-47D breast) | TGI (T-47D breast) | GI50 (M14 melanoma) | TGI (M14 melanoma) | GI50 (OVCAR-4 ovarian) | TGI (OVCAR-4 ovarian) | GI50 (SF-268 CNS) | TGI (SF-268 CNS) | GI50 (HS 578T breast) | TGI (HS 578T breast) | GI50 (SNB-75 CNS) | TGI (SNB-75 CNS)
COc1cccc(NC2=C(Cl)C(=O)N(Cc3ccc(Cl)cc3)C2=O)c1 | 3.12 µM | 30.3 µM | 1.24 µM | > 34.6 µM | 1.17 µM | 14.1 µM | 1.27 µM | 6.86 µM | 10.9 µM | > 100 µM | 1.66 µM | 7.71 µM | 9.69 µM | > 71.5 µM | 3.02 µM | 13.9 µM | 3.21 µM | 13.3 µM | 3.22 µM | > 100 µM
O=C(/C=C/c1cccc2ccccc12)Nc1ncc(Cc2ccccc2)s1 | 4.97 µM | > 100 µM | 0.818 µM | 4.67 µM | 0.627 µM | > 100 µM | 1.37 µM | > 100 µM | 0.894 µM | > 100 µM | 0.649 µM | 3.79 µM | 2.12 µM | 5.16 µM | 2.61 µM | > 100 µM | 0.703 µM | 5.34 µM | 0.344 µM | 1.55 µM
CC(/C=N/N=C(N)N)=N\N=C(N)N | > 73.7 µM | 521 µM | 47.7 µM | 403 µM | > 39.6 µM | > 76.9 µM and 214 µM | – | 459 µM | 5.02 µM | 31 µM and 23.4 µM | – | 425 µM | 13.2 µM | 95.3 µM | 23.1 µM | 92.4 µM | – | 169 µM | 28.3 µM | 187 µM
Nc1c(C(=O)Nc2cccc3ccccc23)sc2nc3c(cc12)C(=O)CCC3 | 0.183 µM | > 65.8 µM | 0.266 µM | – | 0.841 µM | 54.7 µM | 1.16 µM | > 63.6 µM | 0.759 µM | > 100 µM | 0.24 µM | > 100 µM | 2.77 µM | > 51.7 µM | 0.587 µM | > 65.6 µM | 0.226 µM | > 100 µM | 0.145 µM | 12.2 µM
CCCN1CCC=C(c2ccc(Nc3nc(Nc4ccccc4C(N)=O)c4cc[nH]c4n3)c(C)c2)C1 | 2.65 µM | > 25 µM | 9.78 µM | > 25 µM | 5.35 µM | > 25 µM | > 17.7 µM | > 25 µM | > 18.3 µM | > 25 µM | 4.77 µM | > 25 µM | > 14.6 µM | > 25 µM | > 25 µM | > 25 µM | > 17.8 µM | > 25 µM | > 25 µM | > 25 µM
COc1cccc2c1cc1c3c(cc4c(c32)OCO4)C(=O)N1 | 27.3 µM | > 100 µM | 5.78 µM | 21.1 µM | 6.5 µM | > 100 µM | 5.8 µM | 54 µM | 2.33 µM | 6.81 µM | 12.1 µM | > 100 µM | 2.61 µM | 7.26 µM | 6.07 µM | 96.3 µM | 2.33 µM | 6.82 µM | 2.4 µM | 11.1 µM
CCCCCCCCCCSC(=N)N | 2.51 µM | 6.32 µM | 2.37 µM | 6.72 µM | 2.32 µM | 6.59 µM | 6.09 µM | 23.2 µM | 2.04 µM | 4.55 µM | 1.89 µM | 3.57 µM | 3.58 µM | 17.6 µM | 4.2 µM | 17 µM | 2.93 µM | 12.5 µM | 1.79 µM | 4.44 µM
Cc1ccc(S(=O)(=O)NC(CO)C(=O)O)cc1 (stereo unspecified) | – | > 100 µM | – | > 100 µM | – | > 100 µM | – | > 100 µM | – | > 100 µM | – | > 100 µM | – | > 100 µM | – | > 100 µM | – | > 100 µM | – | > 100 µM
